Reference: patent publication US20180353501A1 (Arvinas, Inc., priority 2017, published 2018)

Molecular target: T1, His-p38δ (Homo sapiens, UniProt O15264)
T1 construct: encoding a region spanning amino acids 1-365 was PCR-amplified; made in house; host or cells: E. coli BL21-CodonPlus(DE3)-RIPL
T1 sequence (O15264 1-365): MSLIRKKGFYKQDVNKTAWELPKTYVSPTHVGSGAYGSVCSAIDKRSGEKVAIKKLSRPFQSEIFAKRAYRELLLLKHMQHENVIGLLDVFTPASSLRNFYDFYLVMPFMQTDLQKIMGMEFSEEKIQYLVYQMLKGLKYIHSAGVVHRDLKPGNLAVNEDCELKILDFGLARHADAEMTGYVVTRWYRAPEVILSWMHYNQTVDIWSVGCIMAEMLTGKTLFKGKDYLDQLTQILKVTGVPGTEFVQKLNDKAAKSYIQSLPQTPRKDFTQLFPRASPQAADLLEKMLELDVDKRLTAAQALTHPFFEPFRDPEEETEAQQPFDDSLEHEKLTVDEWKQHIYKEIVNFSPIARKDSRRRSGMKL
Experiment: SPR binary affinity, compound on immobilized His-p38δ
Assay type: binding
Settings: for Kd: His-p38δ immobilized, read-out: PROTAC:p38δ Kd
Method: FIGS. 16A, 16B, and 16C. SPR curves assessing binary and ternary interactions. […] Equimolar p38δ:PROTAC mixtures were injected onto immobilized GST-VBC and allowed to dissociate overtime. […] See Table 12 for a summary of the binary and ternary affinity and kinetic measurements. […] Next, with the same setup, equimolar p38δ:PROTAC dilutions were successively injected onto immobilized VHL for 60 seconds, prior to monitoring complex dissociation for the remaining 300 seconds. This SPR strategy enabled us to determine effective ternary affinities for a given p38δ:PROTAC:VHL complex and compare the relative affinity change that occurs between VHL:PROTAC when p38δ is present in the mixture. […] This p38δ region was cloned into a pET28a vector containing an N-terminal His6 tag using NheI and BamHI restriction sites. As before, BL21-CodonPlus(DE3)-RIPL E. coli cells (Agilent Technologies) were transformed with pET[…]6-p38delta and were selected in LB medium containing kanamycin (50 μg mL^1), chloramphenicol (15 μg mL^-1), and spectinomycin (50 μg mL^-1) at 37° C. until OD600=0.8. […] Pure fractions of p38δ were pooled, concentrated to 3 mg mL^-1, aliquoted, and flash-frozen before storing at -80° C. SPR experiments were conducted on a Biacore 3000 instrument (GE Healthcare) at room temperature. GST antibody was immobilized through direct amination onto a carboxymethylated dextran surface (CM5) and GST-VBC was captured on the CM5 surface. This prepared surface was equilibrated over three hours in running buffer (10 mM HEPES buffer pH 7.4, 150 mM NaCl, 0.4 mg mL^-1 BSA, 0.005% P20, 2% DMSO). All compounds were prepared in 100% DMSO stock plates with a top concentration of 500 μM in a 3× serial dilution. Exemplary compounds were transferred from the stock plate to the assay plate and diluted into running buffer without DMSO. Equimolar concentration of target protein was added to corresponding compound wells. All exemplary compounds were run as a twelve point-concentration series with a final assay top concentration of 50 μM to measure p38δ:PROTAC and VHL:PROTAC binding and top concentration of 5 μM to measure p38δ:PROTAC:VHL binding. All exemplary compounds were injected for 60 seconds and allowed to dissociate for 300 seconds. Data analysis was performed in Scrubber 2 (BioLogic Software). Blanks from reference flow cell containing immobilized GST-VBC were subtracted to correct for noise and data was solvent-corrected against a standard DMSO curve.

`COc1cc2c(Oc3ccc(NC(=O)C4(C(=O)Nc5ccc(F)cc5)CC4)cc3F)ccnc2cc1OCCOCCOCCOc1cc(-c2scnc2C)ccc1CNC(=O)[C@@H]1C[C@@H](O)CN1C(=O)[C@H](C(C)C)N1Cc2ccccc2C1=O` [compound 46] was tested, and the “loss of affinity for p38δ compared to the PTM (foretinib)” value was “about 2 fold” and the Kd was 550 nM.

`COc1cc2c(Oc3ccc(NC(=O)C4(C(=O)Nc5ccc(F)cc5)CC4)cc3F)ccnc2cc1OCCCCOCCCCOCC(=O)N[C@H](C(=O)N1C[C@H](O)C[C@H]1C(=O)NCc1ccc(-c2scnc2C)cc1)C(C)(C)C` [compound 50, N-(3-fluoro-4-((7-(4-(4-(2-(((S)-1-((2S,4R)-4-hydroxy-2-((4-(4-methylthiazol-5-yl)benzyl)carbamoyl)pyrrolidin-1-yl)-3,3-dimethyl-1-oxobutan-2-yl)amino)-2-oxoethoxy)butoxy)buto-xy)-6-methoxyquinolin-4-yl)oxy)phenyl)-N-(4-fluorophenyl)cyclopropane-1,1-dicarboxa-mide] was tested, and the “loss of affinity for p38δ compared to the PTM (foretinib)” value was “about 2 fold” and the Kd was 500 nM.
